From US20180000085A1, “USE OF PICOLINAMIDE COMPOUNDS WITH FUNGICIDAL ACTIVITY” (DOW AGROSCIENCES LLC, priority 2014, published 2018)

Key:
[1] = system: Puccinia triticina; assay: Wheat brown rust (PUCCRT) disease control on wheat seedlings; type: in vivo; parameters: key to PUCCRT 3DC, HV activity at 100 ppm (% control rating) / PUCCRT disease control, 3DC / PUCCRT 1DP disease control rating, HV activity / PUCCRT 3DC disease control rating, HV activity / PUCCRT 3DC, LV activity at 125.1 g/H (% Control rating) / PUCCRT 1DP, LV activity at 125.1 g/H (% Control rating) / PUCCRT 3DC disease control rating, LV activity at 125.1 g/H / PUCCRT 1DP disease control rating, LV activity at 125.1 g/H / PUCCRT 3DC disease control rating, HV activity at 100 ppm / PUCCRT 1DP disease control rating, HV activity at 100 ppm / HV activity at 100 ppm PUCCRT 3DC (disease control rating) / LV activity at 125.1 g/H PUCCRT 1DP (disease control rating) / LV activity at 125.1 g/H PUCCRT 3DC (disease control rating): A: > 80; B: ≤ 80; C: Not Tested; D: No Activity Observed in the Reported Assay; conditions: for PUCCRT 1DP, LV activity at 125.1 g/H (% Control rating) / PUCCRT 3DC, LV activity at 125.1 g/H (% Control rating) / LV activity at 125.1 g/H PUCCRT 1DP (disease control rating) / LV activity at 125.1 g/H PUCCRT 3DC (disease control rating) / PUCCRT 1DP disease control rating, LV activity at 125.1 g/H / PUCCRT 3DC disease control rating, LV activity at 125.1 g/H: low volume application; for PUCCRT 1DP, LV activity at 125.1 g/H (% Control rating) / LV activity at 125.1 g/H PUCCRT 1DP (disease control rating) / PUCCRT 1DP disease control rating, HV activity: 1 Day Protectant; for PUCCRT 3DC, LV activity at 125.1 g/H (% Control rating) / LV activity at 125.1 g/H PUCCRT 3DC (disease control rating) / PUCCRT 3DC disease control rating, HV activity: 3 Day Curative; for LV activity at 125.1 g/H PUCCRT 1DP (disease control rating) / LV activity at 125.1 g/H PUCCRT 3DC (disease control rating) / PUCCRT 1DP disease control rating, HV activity / PUCCRT 3DC disease control rating, HV activity: wheat brown rust; for PUCCRT 1DP disease control rating, HV activity / PUCCRT 3DC disease control rating, HV activity: HV application at 100 ppm
[2] = system: Zymoseptoria tritici; assay: Leaf blotch of wheat (SEPTTR) disease control on wheat seedlings; type: in vivo; parameters: key to SEPTTR 1DP, HV activity at 100 ppm (% control rating) / SEPTTR 3DC, HV activity at 100 ppm (% control rating) / SEPTTR disease control, 1DP / SEPTTR disease control, 3DC / SEPTTR 1DP disease control rating, HV activity / SEPTTR 3DC disease control rating, HV activity / SEPTTR 3DC, LV activity at 125.1 g/H (% Control rating) / SEPTTR 1DP, LV activity at 125.1 g/H (% Control rating) / SEPTTR 1DP disease control rating, LV activity at 125.1 g/H / SEPTTR 3DC disease control rating, LV activity at 125.1 g/H / SEPTTR 3DC disease control rating, HV activity at 100 ppm / SEPTTR 1DP disease control rating, HV activity at 100 ppm / HV activity at 100 ppm SEPTTR 3DC (disease control rating) / HV activity at 100 ppm SEPTTR 1DP (disease control rating) / LV activity at 125.1 g/H SEPTTR 1DP (disease control rating) / LV activity at 125.1 g/H SEPTTR 3DC (disease control rating): A: > 80; B: ≤ 80; C: Not Tested; D: No Activity Observed in the Reported Assay; conditions: for SEPTTR 1DP, LV activity at 125.1 g/H (% Control rating) / SEPTTR 3DC, LV activity at 125.1 g/H (% Control rating) / LV activity at 125.1 g/H SEPTTR 1DP (disease control rating) / LV activity at 125.1 g/H SEPTTR 3DC (disease control rating) / SEPTTR 1DP disease control rating, LV activity at 125.1 g/H / SEPTTR 3DC disease control rating, LV activity at 125.1 g/H: low volume application; for SEPTTR 1DP, LV activity at 125.1 g/H (% Control rating) / LV activity at 125.1 g/H SEPTTR 1DP (disease control rating) / SEPTTR 1DP disease control rating, HV activity: 1 Day Protectant; for SEPTTR 3DC, LV activity at 125.1 g/H (% Control rating) / LV activity at 125.1 g/H SEPTTR 3DC (disease control rating) / SEPTTR 3DC disease control rating, HV activity: 3 Day Curative; for LV activity at 125.1 g/H SEPTTR 1DP (disease control rating) / LV activity at 125.1 g/H SEPTTR 3DC (disease control rating) / SEPTTR 1DP disease control rating, HV activity / SEPTTR 3DC disease control rating, HV activity: wheat leaf blotch; for SEPTTR 1DP disease control rating, HV activity / SEPTTR 3DC disease control rating, HV activity: HV application at 100 ppm
[3] = high volume application, 100 ppm, 1 day protectant
[4] = high volume application, 100 ppm, 3 day curative

CCC(CC)[C@@H](Oc1ccc(C(F)(F)F)cc1)[C@H](C)OC(=O)[C@H](C)NC(=O)c1nccc(OC)c1OCOC(C)=O [Cmpd 594]
PUCCRT 1DP, LV activity at 125.1 g/H (% Control rating) [1]: A (> 80) | PUCCRT 3DC, LV activity at 125.1 g/H (% Control rating) [1]: A (> 80) | SEPTTR 1DP, LV activity at 125.1 g/H (% Control rating) [2]: A (> 80) | SEPTTR 3DC, LV activity at 125.1 g/H (% Control rating) [2]: B (≤ 80)

COc1ccnc(C(=O)NC(C)C(=O)OC(C)COCC2CC2)c1OC(C)=O (stereo not drawn) [Cmpd 529]
PUCCRT 1DP, LV activity at 125.1 g/H (% Control rating) [1]: D | PUCCRT 3DC, LV activity at 125.1 g/H (% Control rating) [1]: D | SEPTTR 1DP, LV activity at 125.1 g/H (% Control rating) [2]: B (≤ 80) | SEPTTR 3DC, LV activity at 125.1 g/H (% Control rating) [2]: B (≤ 80)

C=CC[C@@H](Oc1cccc(Cl)c1)[C@H](C)OC(=O)[C@H](C)NC(=O)c1nccc(OC)c1OCOC(C)=O [Cmpd 1083]
LV activity at 125.1 g/H PUCCRT 1DP (disease control rating) [1]: A (> 80) | LV activity at 125.1 g/H PUCCRT 3DC (disease control rating) [1]: A (> 80) | LV activity at 125.1 g/H SEPTTR 1DP (disease control rating) [2]: B (≤ 80) | LV activity at 125.1 g/H SEPTTR 3DC (disease control rating) [2]: A (> 80)

COc1ccnc(C(=O)NC(C)C(=O)OC(C)COC(C)(C)C)c1OCOC(C)=O (stereo not drawn) [Cmpd 535]
PUCCRT 1DP, LV activity at 125.1 g/H (% Control rating) [1]: D | PUCCRT 3DC, LV activity at 125.1 g/H (% Control rating) [1]: B (≤ 80) | SEPTTR 1DP, LV activity at 125.1 g/H (% Control rating) [2]: D | SEPTTR 3DC, LV activity at 125.1 g/H (% Control rating) [2]: B (≤ 80)

COc1ccnc(C(=O)NC(C)C(=O)OC(C)C(Oc2cccc3ccccc23)C(C)C)c1O (stereo not drawn) [Cmpd 434]
PUCCRT 1DP disease control rating, HV activity [1]: A (> 80) | PUCCRT 3DC disease control rating, HV activity [1]: D | SEPTTR 1DP disease control rating, HV activity [2]: A (> 80) | SEPTTR 3DC disease control rating, HV activity [2]: D

C=CC[C@@H](Oc1ccc(F)cc1F)[C@H](C)OC(=O)[C@H](C)NC(=O)c1nccc(OC)c1OC(C)=O [Cmpd 1081]
LV activity at 125.1 g/H PUCCRT 1DP (disease control rating) [1]: A (> 80) | LV activity at 125.1 g/H PUCCRT 3DC (disease control rating) [1]: B (≤ 80) | LV activity at 125.1 g/H SEPTTR 1DP (disease control rating) [2]: D | LV activity at 125.1 g/H SEPTTR 3DC (disease control rating) [2]: D

CCC(CC)[C@H](Oc1ccc(Cl)cc1)[C@H](C)OC(=O)[C@H](C)NC(=O)c1nccc(OC)c1O [Cmpd 420]
PUCCRT 1DP disease control rating, HV activity [1]: B (≤ 80) | PUCCRT 3DC disease control rating, HV activity [1]: B (≤ 80) | SEPTTR 1DP disease control rating, HV activity [2]: A (> 80) | SEPTTR 3DC disease control rating, HV activity [2]: B (≤ 80)

COc1ccnc(C(=O)NC(C(=O)OC(C)C(Oc2ccccc2)C(C)C)C(F)(F)F)c1O (mixture of isomers) [Cmpd 1018]
PUCCRT 1DP disease control rating, HV activity at 100 ppm [1, 3]: A (> 80) | PUCCRT 3DC disease control rating, HV activity at 100 ppm [1, 4]: A (> 80) | SEPTTR 1DP disease control rating, HV activity at 100 ppm [2, 3]: A (> 80) | SEPTTR 3DC disease control rating, HV activity at 100 ppm [2, 4]: D

COc1ccnc(C(=O)N[C@@H](C)C(=O)O[C@@H](C)[C@H](Oc2ccc(Cl)cc2)C(C)C)c1OCOC(=O)C(C)C [Cmpd 573]
PUCCRT 1DP, LV activity at 125.1 g/H (% Control rating) [1]: A (> 80) | PUCCRT 3DC, LV activity at 125.1 g/H (% Control rating) [1]: A (> 80) | SEPTTR 1DP, LV activity at 125.1 g/H (% Control rating) [2]: A (> 80) | SEPTTR 3DC, LV activity at 125.1 g/H (% Control rating) [2]: A (> 80)

CCC(CC)C(Oc1ccc(Cl)cc1)C(C)OC(=O)C(CC(C)C)NC(=O)c1nccc(OC)c1OCOC(C)=O (stereo not drawn) [Cmpd 681]
PUCCRT 1DP disease control rating, LV activity at 125.1 g/H ([1]; 1 day protectant): D | PUCCRT 3DC disease control rating, LV activity at 125.1 g/H ([1]; 3 day curative): D | SEPTTR 1DP disease control rating, LV activity at 125.1 g/H ([2]; 1 day protectant): D | SEPTTR 3DC disease control rating, LV activity at 125.1 g/H ([2]; 3 day curative): B (≤ 80)

CCC(CC)C(Oc1cccc(F)c1)C(C)OC(=O)C(CC(C)C)NC(=O)c1nccc(OC)c1OCOC(C)=O (stereo not drawn) [Cmpd 680]
PUCCRT 1DP disease control rating, LV activity at 125.1 g/H ([1]; 1 day protectant): D | PUCCRT 3DC disease control rating, LV activity at 125.1 g/H ([1]; 3 day curative): B (≤ 80) | SEPTTR 1DP disease control rating, LV activity at 125.1 g/H ([2]; 1 day protectant): B (≤ 80) | SEPTTR 3DC disease control rating, LV activity at 125.1 g/H ([2]; 3 day curative): B (≤ 80)

COc1ccnc(C(=O)N[C@@H](C)C(=O)O[C@@H](C)[C@H](Oc2cccc(Cl)c2)C(C)C)c1OCOC(=O)C(C)C [Cmpd 571]
PUCCRT 1DP, LV activity at 125.1 g/H (% Control rating) [1]: A (> 80) | PUCCRT 3DC, LV activity at 125.1 g/H (% Control rating) [1]: A (> 80) | SEPTTR 1DP, LV activity at 125.1 g/H (% Control rating) [2]: B (≤ 80) | SEPTTR 3DC, LV activity at 125.1 g/H (% Control rating) [2]: A (> 80)
